Consider 14 compounds from US8530650B2, “2, 5-diamino-substituted pyrido [4, 3-D] pyrimidines as autotaxin inhibitors against cancer” (MERCK PATENT GmbH, priority 2008, dated 2013).

Broadly, the IC50 is the point on the concentration scale where inhibition reaches its midpoint.

The target in the assay is T1, recombinant autotaxin (Homo sapiens, UniProt Q13822).
T1 construct: made in house; host or cells: Hi5 insect cells (baculovirus)
The assay is described as follows: Autotaxin assay (Amplex Red, LPC substrate). The format is biochemical. The settings on record: 75 μM LPC, Amplex Red fluorescence, ten 1:3 dilutions starting at 30 μM. The method, boiled down:
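Baculovirus (Hi5)-expressed autotaxin (16 ng) was preincubated with compound 30 min at 22° C., then reacted with 75 μM final egg LPC for 90 min at 37° C.; choline released was coupled via choline oxidase/peroxidase to Amplex Red, fluorescence read kinetically (ex 485/em 612 nm). IC50 from 10-point 1:3 dilutions from 30 μM, duplicates, normalized to 500 μM C14 LPA as 0%.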
Take `N#CCC(=O)N1CCN(c2nccc3nc(NCc4ccccc4Cl)ncc23)CC1` [Compound 128, 3-{4-[2-(2-Chloro-benzylamino)-pyrido[4,3-d]pyrimidin-5-yl]-piperazin-1-yl}-3-oxo-propionitrile]: the half-maximal inhibitory concentration (IC50) was below 30 µM. For `N[C@H]1CCN(CC(=O)N2CCN(c3nccc4nc(NCc5ccccc5Cl)ncc34)CC2)C1=O` [Compound 133, (S)-3-Amino-1-(2-{4-[2-(2-chloro-benzylamino)-pyrido[4,3-d]pyrimidin-5-yl]-piperazin-1-yl}-2-oxo-ethyl)-pyrrolidin-2-one] the value was below 30 µM; for `COCCOCC(=O)N1CCN(c2nccc3nc(NCc4ccccc4Cl)ncc23)CC1` [Compound 136, 1-{4-[2-(2-Chloro-benzylamino)-pyrido[4,3-d]pyrimidin-5-yl]-piperazin-1-yl}-2-(2-methoxy-ethoxy)-ethanone], below 30 µM.

Turning to `O=C(Cc1ccncc1)N1CCN(c2nccc3nc(NCc4ccccc4Cl)ncc23)CC1` [Compound 138, 1-{4-[2-(2-Chloro-benzylamino)-pyrido[4,3-d]pyrimidin-5-yl]-piperazin-1-yl}-2-pyridin-4-yl-ethanone], the IC50 is below 30 µM. Next, `CNC(=O)C1CCN(c2nccc3nc(NCc4ccccc4Cl)ncc23)CC1` [Compound 139, 1-[2-(2-Chloro-benzylamino)-pyrido[4,3-d]pyrimidin-5-yl]-piperidine-4-carboxylic acid methylamide]: below 30 µM. Next, `CN(C)C(=O)C1CCN(c2nccc3nc(NCc4ccccc4Cl)ncc23)CC1` [Compound 140, 1-[2-(2-Chloro-benzylamino)-pyrido[4,3-d]pyrimidin-5-yl]-piperidine-4-carboxylic acid dimethylamide]: below 30 µM; `O=C(C1CCN(c2nccc3nc(NCc4ccccc4Cl)ncc23)CC1)N1CCC[C@H]1CN1CCCC1` [Compound 142, {1-[2-(2-Chloro-benzylamino)-pyrido[4,3-d]pyrimidin-5-yl]-piperidin-4-yl}-((S)-2-pyrrolidin-1-ylmethyl-pyrrolidin-1-yl)-methanone]: below 30 µM. Consider `O=C(NCc1ccc(F)cc1Cl)C1CCN(c2nccc3nc(NCc4ccccc4Cl)ncc23)CC1` [Compound 144, 1-[2-(2-Chloro-benzylamino)-pyrido[4,3-d]pyrimidin-5-yl]-piperidine-4-carboxylic acid 2-chloro-4-fluoro-benzylamide], for which the IC50 is below 30 µM. Next, `O=C(O)CN1CCN(c2nccc3nc(NCc4ccccc4Cl)ncc23)CC1` [Compound 145, {4-[2-(2-Chloro-benzylamino)-pyrido[4,3-d]pyrimidin-5-yl]-piperazin-1-yl}-acetic acid]: below 10 µM; `Clc1ccccc1CNc1ncc2c(NCCc3ccccn3)nccc2n1` [Compound 146, N2-(2-Chloro-benzyl)-N5-(2-pyridin-2-yl-ethyl)-pyrido[4,3-d]pyrimidine-2,5-diamine]: below 30 µM. Next, `Clc1ccccc1CNc1ncc2c(NCCc3cccnc3)nccc2n1` [Compound 147, N2-(2-Chloro-benzyl)-N5-(2-pyridin-3-yl-ethyl)-pyrido[4,3-d]pyrimidine-2,5-diamine]: below 30 µM; `Clc1ccccc1CNc1ncc2c(NCCc3ccncc3)nccc2n1` [Compound 148, N2-(2-Chloro-benzyl)-N5-(2-pyridin-4-yl-ethyl)-pyrido[4,3-d]pyrimidine-2,5-diamine]: below 30 µM. For `O=C(OCc1cccnc1)N1CCN(c2nccc3nc(NCc4ccccc4Cl)ncc23)CC1` [Compound 151, 4-[2-(2-Chloro-benzylamino)-pyrido[4,3-d]pyrimidin-5-yl]-piperazine-1-carboxylic acid pyridin-3-ylmethyl ester] the value was below 30 µM; for `CS(=O)(=O)CS(=O)(=O)N1CCN(c2nccc3nc(NCc4ccccc4Cl)ncc23)CC1` [Compound 156, (2-Chloro-benzyl)-[5-(4-methanesulfonylmethanesulfonyl-piperazin-1-yl)-pyrido[4,3-d]pyrimidin-2-yl]-amine], below 30 µM.
